From paper PMC9402746, “A phase I dose escalation, dose expansion and pharmacokinetic trial of gemcitabine and alisertib in advanced solid tumors and pancreatic cancer” (Cancer Chemotherapy and Pharmacology, 2022)
Entries after “also recorded” stand apart in the source; their conditions may differ. Read-outs that look alike come from different tables or passages of the source. One block for each compound: values may come before it.

Experiments:
[1] = design: method as in PMID 22753585, PMID 24879333, PMID 25302940; conditions: twice daily for 7 days in a 21-day cycle; cited from earlier work
[2] = system: multiple solid organ malignancies; design: method as in PMID 25728526; conditions: cited from earlier work
[3] = Treatment exposures, delays and dose reductions; assay type: in vivo, human
Excerpt: To proceed to the next cycle, lab parameters included ANC ≥ 1500/mm^3 and platelet count ≥ 100,000/mm^3, and all other toxicity considered by the investigator to be related to therapy with alisertib or gemcitabine must have resolved to grade ≤ 1 or to the subject’s baseline values. […] Thereafter, the subject was re-evaluated to determine continuation eligibility. Dose modification (Table S1B, 1C) was required for cycle initiations delayed > 1 week due to incomplete recovery from treatment-related toxicity.
Median number of cycles per subject was 3 (range 1–13), and median duration of treatment was 2.84 months (range 0.36–13.22). Similar median duration of treatment and cycles delivered were observed between the dose levels (Table S2). Proportion of planned dose received, defined as total dose received divided by total planned dose according to the dose level for alisertib and 1000 mg/m^2 for gemcitabine, was calculated according to each subject (Table S3) and each cycle (Fig. 1).

selected CYPs = system: selected CYPs; design: method as in PMID 31911485; conditions: in vitro; cited from earlier work
[4] = design: method as in PMID 28852909; conditions: published literature; cited from earlier work
[5] = Plasma pharmacokinetics of alisertib, non-compartmental analysis; assay type: in vivo, human
Experimental: (§1) Pharmacokinetic sampling was performed on the expanded cohort of subjects with pancreatic cancer treated at the RP2D. Alisertib was not administered on cycle 1, day 1 to enable gemcitabine pharmacokinetic sampling on day 1 and day 2 of cycle 1 in the absence of co-administered alisertib. This served as the reference baseline for comparison to gemcitabine pharmacokinetics when co-administered with alisertib on day 8 of cycle 1. On cycle 1 day 8, alisertib was administered within 10 min of the start of the gemcitabine infusion, and the second (evening) dose of alisertib was not administered to allow for gemcitabine measurement at the 24 h timepoint. Both the parent drug (gemcitabine, dFdC) and the metabolite (dFdU) were measured to evaluate changes in gemcitabine metabolism related to alisertib administration. Pharmacokinetic blood samples were collected with dipotassium ethylenediaminetetraacetic acid (K2EDTA) as the anticoagulant before treatment, immediately after gemcitabine infusion, and at additional pre-specified post-infusion timepoints. Actual timepoints were recorded for PK parameter evaluation. Measurement of plasma gemcitabine, dFdU, and alisertib concentrations are described in the Supplementary Methods.
(§2) Gemcitabine, dFdU and alisertib PK parameters were estimated using non-compartmental analysis (NCA) with Certara Phoenix WinNonlin 8.0 (Princeton, NJ), including mean peak concentration (Cmax) and exposure (Area Under the Curve, AUC). The AUC parameters were estimated using the linear-up-log-down trapezoidal rule. Tests of significance between day 1 and day 8 PK parameters were performed using paired t-tests with GraphPad Prism 6.07 (San Diego, CA).

breast/ovarian cancer = system: breast/ovarian cancer; design: method as in PMID 30347019; conditions: cited from earlier work
[6] = human, in vivo, 28 days
Experimental: This was an open-label phase I clinical trial with two-phase design including a dose escalation and an expansion phase in pancreatic cancer. In the dose escalation phase, a standard 3 + 3 design was used to determine the maximum tolerated dose (MTD) of alisertib in combination with gemcitabine. Alisertib was administered orally twice daily (BID) on days 1–3, 8–10, and 15–17 of a 28-day treatment cycle. Gemcitabine was given concurrently at standard dosing of 1000 mg/m^2 intravenously on days 1, 8, 15. A starting dose of alisertib 20 mg BID was used in the dose escalation phase and was escalated in cohorts of at least three evaluable subjects at 30 mg BID, 40 mg BID, and 50 mg BID until MTD or the highest feasible dose level (Table S1). The dose of 50 mg BID was the highest dose allowable and was previously reported as the recommended phase II dose (RP2D) for alisertib monotherapy. In the expansion phase, subjects received the MTD or RP2D following the same cycle schedule. Dose adjustments were allowed for both drugs (Table S1B, 1C).
The MTD was defined as the highest dose tested in which fewer than 33% of subjects experienced DLT attributable to the study drugs, when at least six subjects were treated at that dose and evaluable for toxicity.
DLT was defined as any related (possibly, probably, or definitely) grade 3 non-hematologic toxicity or any attributable grade 4 toxicity. […]

[7] = system: Aurora Kinase A (AKA) compared to Aurora Kinase B; design: method as in PMID 20382844, PMID 21556291; conditions: cited from earlier work
[8] = Plasma pharmacokinetics of gemcitabine and dFdU without and with alisertib, non-compartmental analysis; assay type: in vivo, human; conditions: for Percentage extrapolated AUC0->inf, Mean / Cmax / AUC(0-inf) / AUC(0-t): plasma, gemcitabine 1000 mg/m^2 IV; for Cmax / AUC(0-inf) / AUC(0-t): human, iv; for AUC(0-inf): read-out: AUC0->inf, Mean (converted); for AUC(0-t): read-out: AUC0->last, Mean (converted); for Effect of co-administered alisertib on NCA PK parameters (day 1 vs day 8): paired t test, P > 0.05
Experimental: as §1, §2

small cell lung cancer = system: small cell lung cancer; design: method as in PMID 31655296; conditions: cited from earlier work
[9] = monotherapy trial of solid tumors
[10] = 1000 mg/m2, Day 1 (without alisertib), N 5
[11] = 1000 mg/m2, Day 8 (with alisertib), N 4

Structure (SMILES): COc1cc(Nc2ncc3c(n2)-c2ccc(Cl)cc2C(c2c(F)cccc2OC)=NC3)ccc1C(=O)O [alisertib]
- RP2D of alisertib monotherapy [1]: 50 mg
- Rate of SAEs [2, 9]: 43%
- Treatment-related adverse events: anemia [2, 9]: 10%
- Treatment-related adverse events: leukopenia [2, 9]: 21%
- Treatment-related adverse events: neutropenia [2, 9]: 43%
- Response rates ([2]; monotherapy, depending on the primary tumor subtype): 5–20%
- Subjects who underwent dose delays/omissions ([3]; of 26 subjects): 18 subjects
- Subjects with dose reductions ([3]; of 26 subjects): 9 subjects
- Cycles modified ([3]; of 94 cycles delivered): 27 cycles
- Inhibition of selected CYPs (selected CYPs): not shown appreciable inhibition
- Tmax [4]: 3 to 4 h
- Cmax ([5]; Subject 22, day 8, unexpectedly high): 1750 ng/mL
- Percentage extrapolated AUC0->inf, Mean ([5]; alisertib oral at RP2D with gemcitabine, cycle 1 day 8, plasma, N 4): 25.08%
- Tmax ([5]; human, plasma, oral, Subject 24, day 8, unexpectedly long, read-out: Tmax): 24 h
- Tmax ([5]; human, plasma, oral, other subjects here, day 8, read-out: Tmax): 1.5 to 4.5 h
- Cmax ([5]; human, plasma, oral, observed here with gemcitabine, similar to previously reported, read-out: Cmax): 700 to 900 ng/mL
- Tmax ([5]; human, plasma, po, alisertib oral at RP2D with gemcitabine, cycle 1 day 8, plasma, N 5, read-out: Tmax, Mean (converted)): 7.52 h
- AUC(0-inf) ([5]; human, alisertib oral at RP2D with gemcitabine, cycle 1 day 8, plasma, N 4, read-out: AUC0->inf, Mean (converted)): 16300 ng·h/mL
- AUC(0-t) ([5]; human, alisertib oral at RP2D with gemcitabine, cycle 1 day 8, plasma, N 5, read-out: AUC0->last, Mean (converted)): 11800 ng·h/mL
- Cmax ([5]; human, alisertib oral at RP2D with gemcitabine, cycle 1 day 8, plasma, N 5, read-out: Cmax, Mean): 973 ng/mL
- RP2D of alisertib in combination with paclitaxel (breast/ovarian cancer; twice daily, schedule similar to the one reported here): 40 mg
- Recommended phase 2 dose of alisertib combined with gemcitabine [6]: 50 mg
- Selectivity for AKA compared to Aurora Kinase B [7]: > 200 fold

- Percentage extrapolated AUC0->inf, Mean ([8]; Day 1 (without alisertib), N 5): 18.13%
- Percentage extrapolated AUC0->inf, Mean ([8]; Day 8 (with alisertib), N 4): 15.73%
- Cmax [8, 10]: 67900 ng/mL
- AUC(0-inf) [8, 10]: 412000 ng·h/mL
- AUC(0-t) [8, 10]: 363000 ng·h/mL
- Cmax [8, 11]: 73800 ng/mL
- AUC(0-inf) [8, 11]: 363000 ng·h/mL
- AUC(0-t) [8, 11]: 343000 ng·h/mL
Structure (SMILES): O=c1ccn([C@@H]2O[C@H](CO)[C@@H](O)C2(F)F)c(=O)[nH]1 [dFdU, 2′, 2′-difluorodeoxyuridine]
- Effect of co-administered alisertib on NCA PK parameters (day 1 vs day 8) [8]: No significant changes; also recorded: not significantly affected

- Subjects who required dose delays ([3]; of 26 subjects): 16 subjects
- Subjects who required dose omission ([3]; of 26 subjects): 14 subjects
- Subjects with dose reductions ([3]; of 26 subjects): 5 subjects
- Cycles given at a reduced dose ([3]; of 94 cycles delivered): 10 cycles
- Cycles with delayed doses ([3]; of 94 cycles delivered): 43 cycles
- Cycles with dose omissions ([3]; of 94 cycles delivered): 17 cycles
- Percentage extrapolated AUC0->inf, Mean ([8]; Day 1 (without alisertib), N 5): 0.14%
- Percentage extrapolated AUC0->inf, Mean ([8]; Day 8 (with alisertib), N 4): 0.32%
- Cmax [8, 10]: 7420 ng/mL
- AUC(0-inf) [8, 10]: 3600 ng·h/mL
- AUC(0-t) [8, 10]: 3600 ng·h/mL
- Cmax [8, 11]: 6240 ng/mL
- AUC(0-inf) [8, 11]: 3240 ng·h/mL
- AUC(0-t) [8, 11]: 3230 ng·h/mL
Structure (SMILES): Nc1ccn([C@@H]2O[C@H](CO)[C@@H](O)C2(F)F)c(=O)n1 [gemcitabine]
- Effect of co-administered alisertib on NCA PK parameters (day 1 vs day 8) [8]: No significant changes; also recorded: not significantly affected

Structure (SMILES): CC(=O)O[C@H]1C(=O)[C@@]2(C)[C@H]([C@H](OC(=O)c3ccccc3)[C@]3(O)C[C@H](OC(=O)[C@H](O)[C@@H](NC(=O)c4ccccc4)c4ccccc4)C(C)=C1C3(C)C)[C@]1(OC(C)=O)CO[C@@H]1C[C@@H]2O [paclitaxel]
- mPFS (small cell lung cancer; 89 subjects in each arm): 2.17 months
- Response rate (small cell lung cancer): 18%
- mPFS (breast/ovarian cancer; breast/ovarian subjects): 4.7 months
- Response rate (breast/ovarian cancer; breast/ovarian subjects, p = 0.38): 52%
